The values below are quoted from earlier work in US20080089936A1, “PROLONGED RELEASE FORMULATION OF ACTIVE PRINCIPLES HAVING A PH-DEPENDENT SOLUBILITY” (SANOFI-AVENTIS, priority 2005, published 2008).

The conditions of this data set: hypnotic agent, oral.

On to `Cc1ccc(-c2nc3ccc(C)cn3c2CC(=O)N(C)C)cc1` [zolpidem], for which the duration of action entry is listed as “up to 6 hours”.
